Patent US12617835B2, “Chimeric autoantibody receptor (CAAR) that binds autoantibodies targeting the central nervous system in neurological autoimmune disease” (Deutsches Zentrum für Neurodegenerative Erkrankungen e. V. …, priority 2019, dated 2026)

How the values were obtained:
[1] = system: K562 cells expressing NR1-reactive antibodies on their surface; assay: Interferon-γ release on co-culture with K562 cells expressing surface NR1-reactive antibodies; assay type: cell-based; conditions: 50,000 T-cells co-cultured 1:1 with K562 cells, 48 hours
Description: 50,000 CAAR T-cells were co-cultured 1:1 with K562 cells expressing NR1-reactive or control antibodies on their surface for 48 hours.

[2] = system: K562 cells expressing surface NR1-reactive antibodies; assay: Cell lysis of K562 target cells (7-AAD, flow cytometry); assay type: cell-based; conditions: E:T ratios 30:1 to 1:1, 4 hours
Description: For quantification of cell killing, target cells were incubated with CAAR T-cells at different Effector: Target (E:T) ratios ranging from 30:1 to 1:1 for 4 hours. Dead cells were stained by 7-AAD and analyzed by flow cytometry.
Target K562 cells were incubated with CAAR T-cells at different Effector:Target (E:T) ratios ranging from 30:1 to 1:1.

[3] = system: Nalm6 cells with surface-presentation of NR1 autoantibody #003-102; assay: In vivo bioluminescence imaging of Nalm6 burden in mice; conditions: bioluminescence on day 9 (4 days post-treatment); preliminary data
Description: Nalm6 cells with surface-presentation of NR1 autoantibody and expressing a Luciferase enzyme (e.g. firefly-Luciferase) tagged with a fluorescent protein (e.g. GFP), are injected on day 1 into mice. On day 5, therapeutic CAAR-T cells expressing a CAAR of the present invention or control T cells without CAAR expression are injected. Bioluminescence imaging is conducted regularly, for example at time points 1, 5, 8, 12, 15, 19 and 22 days, to assess therapeutic effect against the Nalm6 cells. […]
In order to show therapeutic efficacy in an animal model in vivo, Nalm6 cells with surface-presentation of NR1 autoantibody #003-102 or #008-218 and expressing the Luciferase enzyme firefly-Luciferase (ffluc) tagged with a fluorescent protein (GFP, green fluorescent protein), were injected on day 1 into 16 mice. […] As a read-out of the assay, animal survival, target cell reduction (via in vivo bioluminescence measurements) and serum antibody levels are determined. […]
The potential readouts for the assay relate to bioluminescence imaging quantification (for the detection of in vivo killing), quantification of anti-NR1 serum levels by ELISA (for the detection of reduction of circulating antibodies), and postmortem analysis of treated animals (in order to determine off-target toxicity). […]

[4] = system: Nalm6 target cells expressing NR1-reactive antibody #003-102; assay: Luciferase-assay of specific lysis of Nalm6 target cells, with or without Dasatinib; assay type: cell-based
Description: For quantification of cell killing, Nalm6 target cells expressing NR1-reactive antibody #003-102 were incubated with CAAR T-cells at different Effector:Target (E:T) ratios ranging from 1:2 to 8:1 for 18 hours. Percentage of specific lysis was determined by reduction of bioluminescence in a Luciferase-assay.
Results are depicted in FIG. 10.

Substance: ATD-S1-S2-CAAR: T cells transduced with CAAR: CD8 leader/NMDAR ATD-S1-Linker1-S2/Linker2/CD8a TM/CD137 co-stim/CD3z signaling
- release of interferon-γ [1]: massively released
- killing of K562 cells expressing surface NR1-reactive antibodies [2]: dose-dependent killing
- animals with drastic reduction of Nalm6 burden [3]: 5/6
- inactivation of CAAR T cells by Dasatinib ([4]; Dasatinib (safety strategy)): temporarily halted
- killing of Nalm6 target cells ([4]; E:T ratios 1:2 to 8:1, 18 hours): dose-dependent killing
